Assay results reported in patent US6616940B2, “Process for decreasing adiposity using Vitamin A as a dietary supplement” (The Procter & Gamble Company, priority 1998, dated 2003).

Key:
[1] = system: leptin mRNA; assay: Leptin mRNA levels in PWAT (dot-blot); assay type: in vivo, rats; conditions: CGP-12177 0.75 mg/kg i.p.
Method: (§1) Rats were fed a diet containing either, 8,643 IU retinol/kg diet (normal diet) or 430,431 IU retinol/kg diet (vitamin A supplemented diet) for a period of 8 weeks. Food and water were provided ad libitum. Body weights and food intake were recorded weekly. Basal whole body oxygen consumption was measured before starting the diet and then after week 3, 6 and 8 on the diet. At the end of 8 weeks, half the rats from each group were challenged with a single dose of the β3 adrenergic specific agonist, CGP-12177 (prepared in pyrogen-free saline, available from Ciba-Geigy, Summit, […].) or saline. The stimulated whole body oxygen consumption was measured and the animals sacrificed 4 hours after injection. Total cellular RNA was extracted using a modification of the method described in Chomczynski and Sacchi, “Single step method of RNA isolation by acid guanidinium thiocyanate-phenolchloroform extraction”, Analytical Biochemistry 162:156-159 (1987). […] The RNA was quantified by spectrophotometric absorption at 260 nm using multiple dilutions of each sample. […] The latent image was scanned using a Phosphor Imager (Molecular Dynamic, Sunnyvale, Calif.) and analyzed by Image Quant Software (Molecular Dynamics). Intensities per μg total cellular RNA were calculated by comparison to internal laboratory standards of WAT or BAT total RNA present on each nylon membrane.

[2] = Whole body oxygen consumption (basal and CGP-12177-stimulated); assay type: in vivo; conditions: rats on normal and vitamin A supplemented diets, 0.75 mg/kg i.p., vs saline injected rats
Method: (§2) Rats were fed a diet containing either, 8,643 IU retinol/kg diet (normal diet) or 430,431 IU retinol/kg diet (vitamin A supplemented diet) for a period of 8 weeks. Food and water were provided ad libitum. Body weights and food intake were recorded weekly. Basal whole body oxygen consumption was measured before starting the diet and then after week 3, 6 and 8 on the diet. At the end of 8 weeks, half the rats from each group were challenged with a single dose of the β3 adrenergic specific agonist, CGP-12177 (prepared in pyrogen-free saline, available from Ciba-Geigy, Summit, N.J.) (0.75 mg/kg, i.p.) or saline. The stimulated whole body oxygen consumption was measured and the animals sacrificed 4 hours after injection.
O2 consumption was assessed on up to four rats simultaneously with an Oxyscan analyzer (OXS-4; Amniotic Electronics, Columbus, Ohio). All experiments were performed on conscious unanesthetized rats during the light phase of the light-dark cycle. Flow rates were 2 L/min with a 30 second sampling time at 5 minute intervals. The temperature was maintained at 26° C. Results were expressed on a mass-dependent basis (ml/min/kg^0.67). The cumulative increase in the CGP12177-stimulated oxygen consumption was calculated as the average increase over baseline from 30 min to 110 min, post injection.

[3] = system: UCP1 mRNA; assay: UCP1 mRNA levels in BAT (dot-blot); assay type: in vivo; conditions: rats on both vitamin A supplemented and normal diets, 0.75 mg/kg i.p., 4 h (FIG. 4)
Method: as §1

[4] = system: UCP2 mRNA; assay: UCP2 mRNA levels in PWAT and BAT; assay type: in vivo, rats; conditions: CGP-12177 0.75 mg/kg i.p., 4 h, mean ± SE
Method: as §2
(§3) Total cellular RNA was extracted using a modification of the method described in Chomczynski and Sacchi, “Single step method of RNA isolation by acid guanidinium thiocyanate-phenolchloroform extraction”, Analytical Biochemistry 162:156-159 (1987). The integrity of the isolated RNA was verified using 1% agarose gels stained with ethidium bromide. The RNA was quantified by spectrophotometric absorption at 260 nm using multiple dilutions of each sample.
(§4) For dot-blot analysis, multiple concentrations of RNA were immobilized on nylon membranes using a dot-blot apparatus (Biorad, Richmond, Calif.). The membranes were baked at 80° C. for 2 hrs. The baked membranes were prehybridized using 25 mM potassium phosphate, 750 mM NaCl, 75 mM Na citrate, 5× Denhardt's solution, 50 μg/ml denatured salmon sperm DNA, and 50% formamide. After incubation for 14-16 hrs. at 42° C, the membranes were hybridized with ^32P labeled probes in the prehybridization buffer plus 10% dextran sulfate. After hybridization for 14-16 hr at 42° C., the membranes were washed and exposed to a phosphor imaging screen for 48 hrs. The latent image was scanned using a Phosphor Imager (Molecular Dynamic, Sunnyvale, Calif.) and analyzed by Image Quant Software (Molecular Dynamics). Intensities per μg total cellular RNA were calculated by comparison to internal laboratory standards of WAT or BAT total RNA present on each nylon membrane.

[5] = system: β3-adrenergic receptor mRNA; assay: β3-adrenergic receptor mRNA levels in PWAT and BAT; assay type: in vivo, rats; conditions: for β3AR mRNA levels, BAT / β3AR mRNA levels, PWAT: CGP-12177 0.75 mg/kg i.p., 4 h, mean ± SE
Method: as §2, §3, §4

[6] = system: β-actin mRNA; assay: β-actin mRNA levels in BAT; assay type: in vivo, rats; conditions: CGP-12177 0.75 mg/kg i.p., 4 h, mean ± SE
Method: as §1

CC(C)(C)NCC(O)COc1cccc2[nH]c(=O)[nH]c12 (stereo not shown) [CGP-12177]
Suppression of leptin mRNA levels in PWAT ([1]; rats on normal diet, 4 hr (FIG. 2)): 27% | Effect on leptin mRNA levels in PWAT ([1]; rats on vitamin A supplemented diet, 4 hr, vs saline on same diet): no further effect | Oxygen consumption upon administration of CGP-12177 [2]: rapid and sustained increase | UCP1 mRNA levels in BAT upon administration of CGP-12177 [3]: significant but similar increase | UCP2 mRNA levels, BAT ([4]; Normal Diet): 93.4 ± 12.2 arbitrary units | UCP2 mRNA levels, PWAT ([4]; Normal Diet, 0.75 mg/kg): 109 ± 10 arbitrary units | UCP2 mRNA levels, PWAT ([4]; Normal Diet, listed as CGP12177, 0.75 mg/kg): no effect | UCP2 mRNA levels, BAT ([4]; Vitamin A supplemented diet): 94 ± 8.9 arbitrary units | UCP2 mRNA levels, PWAT ([4]; Vitamin A supplemented diet): 110 ± 10 arbitrary units | Down regulation of β3-adrenergic receptor mRNA levels in BAT ([5]; CGP-12177 for 4 h, rats on vitamin A supplemented and normal diets, vs saline treated): 50% | β3AR mRNA levels, BAT ([5]; Normal Diet): 50.9 ± 3.3 arbitrary units | β3AR mRNA levels, PWAT ([5]; Normal Diet): 105 ± 6.0 arbitrary units | β3AR mRNA levels, BAT ([5]; Vitamin A supplemented diet): 59.8 ± 7.9 arbitrary units | β3AR mRNA levels, PWAT ([5]; Vitamin A supplemented diet): 112 ± 11 arbitrary units | β-actin mRNA levels, BAT ([6]; Normal Diet): 98.6 ± 7.4 arbitrary units | β-actin mRNA levels, BAT ([6]; Vitamin A supplemented diet): 93.8 ± 8.0 arbitrary units
